Results as given in PubChem BioAssay (NCI).
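1) Cells in 96-well plates. 2) Compound, 48 h, 5 concentrations. 3) Linear interpolation between surrounding doses. 4) Unreached endpoint = highest concentration. Definition used: TGI = concentration required for complete inhibition of growth.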 Where a SMILES comes first, the peptide text is derived from it. The star is where a group is joined. Fmoc = O=C(OCC1c2ccccc2-c2ccccc21)*; Boc = CC(C)(C)OC(=O)*

Legend:
Assay in all cases: NCI tumour cell line growth inhibition, 48 h
786-0 renal = test system: 786-0 renal
DU-145 prostate = test system: DU-145 prostate
HCT-116 colon = test system: HCT-116 colon
HOP-62 NSCLC = test system: HOP-62 NSCLC
LOX IMVI melanoma = test system: LOX IMVI melanoma
MALME-3M melanoma = test system: MALME-3M melanoma
RPMI-8226 leukemia = test system: RPMI-8226 leukemia
SF-539 CNS = test system: SF-539 CNS
SNB-75 CNS = test system: SNB-75 CNS
TK-10 renal = test system: TK-10 renal

SMILES	TGI (786-0 renal) [µM]	TGI (DU-145 prostate) [µM]	TGI (HCT-116 colon) [µM]	TGI (HOP-62 NSCLC) [µM]	TGI (LOX IMVI melanoma) [µM]	TGI (MALME-3M melanoma) [µM]	TGI (RPMI-8226 leukemia) [µM]	TGI (SF-539 CNS) [µM]	TGI (SNB-75 CNS) [µM]	TGI (TK-10 renal) [µM]
CCOC(=O)c1c(N2CCCC2)[nH]c(=O)c(C(c2ccco2)c2c(O)c(C(=O)OCC)c(N3CCCC3)[nH]c2=O)c1O	> 100	> 100	> 100	> 100	> 100	> 100	> 100	> 100	60.5	> 100
CC(C)(C)OC(=O)NCCCCC(NC(=O)OCC1c2ccccc2-c2ccccc21)C(=O)N1CCCC1C(=O)NCC(N)=O (stereo not drawn) (Fmoc-Lys(Boc)-Pro-Gly-NH2; configuration not given here)	34.3	> 100	> 100	> 100	40	34.5	> 100	> 100	> 100	> 100
O=C1/C(=C/c2ccccc2O)N=C(c2ccccc2)N1c1nc2ccccc2s1	53.8	> 100	77.5	> 100	> 100		49.3	57	98.2	74.9
O=C/C=C/c1ccco1	> 100	> 100	> 100	> 100	> 100	> 100	> 100	> 100	> 100	> 100
O=C1CCCC/C1=C\c1ccc(Br)cc1	30.9	> 100	31.6	42.8	> 100	21.5	57.3	37.1	29.8	30.9
COc1ccc(C(SCCO)(c2ccccc2)c2ccccc2)cc1	27	27	23.7	37.9	39.7	38.5		30.2	25.7	35
COC(=O)C1CCC(=O)N1C(c1ccc(OC)cc1)c1ccc(OC)cc1 (stereo not drawn)	> 100	> 100	> 100	> 100	> 100	> 100	> 100	> 100	> 100	> 100
NC1CC2NC3CCCCC3NC2CC1N (stereo not drawn)	> 100	> 100	> 100		> 100	> 100	> 100	> 100	> 100	> 100
NCCCNC1(c2cc3ccccc3s2)CCCCC1	5.27	24.8	4.91	27.8	6.86	3.65	5.88	4.23	24.2	12
O=C1[C@@H]2[C@@H](c3ccccc3)[C@]2(Cl)C(=O)[C@H]2[C@H](c3ccccc3)[C@@]12Cl	> 100	> 100	> 100	> 100	> 100	> 100		> 100	> 100	> 100
O=C(/C=C/c1ccc(/C=C/C(=O)c2ccc(O)cc2)cc1)c1ccc(O)cc1	> 100	> 100	> 100	> 100	> 100		> 100	> 100	> 100	> 100
CCSc1cc(=O)n(C)c(=O)n1C	> 100	> 100	> 100	> 100	> 100	> 100	> 100	> 100	> 100	> 100
COC(=O)C1=C(O)C(C(=O)OC)[C@]2(O)[C@H](C(=O)OC)[C@H]1C[C@@H](c1c(Cl)cccc1Cl)[C@H]2C(=O)OC (stereo partly drawn)	3.48	8.2	3.42	10.8	3.69	5.25	3.38	3.78	8.7	
Cn1/c(=N\S(=O)(=O)c2ccccc2)n(S(=O)(=O)c2ccccc2)c2ccccc21	> 100	> 100	> 100	> 100	> 100	> 100	> 100		> 100	> 100
O=S(=O)(O)ON=C1c2ccccc2-c2ccccc21	> 100	> 100	> 100	> 100	> 100		> 100	> 100	> 100	> 100
Cc1ccc(-n2[nH]nc(C#N)c2=O)cc1	> 100	> 100	> 100	> 100		> 100	> 100		> 100	> 100
O=C(Cc1nccc2c1[nH]c1ccccc12)OC1C#CCSCC#C/C=C\1 (stereo not drawn)	> 100	> 100	> 100	> 100	> 100	> 100	> 100	> 100		> 100
O=c1oc2cc(O)ccc2c(O)c1C(c1cccnc1)c1c(O)c2ccc(O)cc2oc1=O	> 100	> 100	> 100	> 100	> 100		> 100	> 100	> 100	> 100
Cc1cc(C)c2c(n1)S(=O)(=O)N(CCCN1CCN(c3cccc(C(F)(F)F)c3)CC1)c1c-2nn(C)c1C	> 100	> 100	> 100	> 100	> 100	> 100		> 100	> 100	> 100
CSc1c(C#N)c(N)nc2c(N=Nc3ccc(Cl)cc3)c(N)nn12	7.1	5.7		28.6	2.87	16.4	7.12	12.3	15.3	26.8
CCN1CCN(c2nc3ccc([N+](=O)[O-])cc3nc2C(=O)c2ccccc2)CC1	34.2	33.2	31.2	35.6	17.8	28.2	30.9	29.7		34.2
c1csc(-c2cc(-c3cccs3)c(-c3cccs3)s2)c1	> 100	> 100	> 100	> 100		> 100		> 100	> 100	> 100
